Experimental data published in patent US6225306A, “Biphenyl derivatives and drug composition” (Wakamoto Pharmaceutical Co., Ltd., priority 1997, dated 2001).

Key:
Normal Conscious Rat [1] = test: Aquaretic Effects in Normal Conscious Rat (urine volume); assay type: in vivo, rat (Sprague-Dawley, male)
Method: Aquaretic Effects in Normal Conscious Rat
(§1) Studies were performed with Sprague-Dawley male SPF rats (body weight: 240 to 320 g; 8-week-old). In this experiment, each group consisted of not less than 4 animals and rats were fasted over 16 to 20 hours. The animals were acclimatized in metabolic cages for one hour, then each compound to be tested was dissolved in 100% N,N-dimethylformamide or suspended in 5% gum arabic solution and administered to these animals intravenously (iv.) in a dose of 3 mg/kg or orally (p.o.) in a dose of 30 mg/kg. Immediately after the test compound or vehicle were orally administered, saline (25 ml/kg) was given orally. Spontaneous voided urines were collected for 4 hours after the administration of the compound and the amount of the urine were determined. In this case, the control group consisted of animals to which only 5% gum arabic was orally administered.
In addition, known compounds of Comparative Examples 2 and Comparative Examples 3 and 4 represented by the following formulas were used as control compounds.

Normal Conscious Rat [2] = test: Urinary electrolytes and urinary osmotic pressure in conscious rat; assay type: in vivo, rat (Sprague-Dawley, male); settings: 0-2 hours, relation to urine volume
Method: as §1
Separately, the cumulative urine in each animal was collected for 2 hours after the administration of the compound, and analyze the amounts of sodium and potassium as electrolytes present in the urine (ion-selective electrode method), the amount of chlorine (coulometric titration) and urinary osmotic pressure (cryoscopic method). The results thus observed for typical compounds of the present invention are plotted on the accompanying drawings (FIGS. 1, 2, 3 and 4). […]. In this test, each compound tested was used in the following dose. […]

NS(=O)(=O)c1cc(C(=O)O)c(NCc2ccco2)cc1Cl [Comp. Ex. 3, Furosemide, reference compound]
Amount of Urine Volume (Normal Conscious Rat [1]; 3 mg/kg, i.v.): 27.3 ml/kg/0-4 hr. | Amount of Urine Volume (Normal Conscious Rat [1]; 30 mg/kg, p.o.): 59.9 ml/kg/0-4 hr. | urinary osmotic pressure (Normal Conscious Rat [2]; FIG. 4): increased approximately in proportion to the increase in the amount of the urine | amount of electrolytes excreted in the urine (Normal Conscious Rat [2]; FIGS. 1-3): increased approximately in proportion to the increase in the amount of the urine
